Assay results taken from ChEMBL document CHEMBL3886313, “Ketone linked benzothiazole inhibitors of endothelial lipase” (2015).

Target: T1, Endothelial lipase (Homo sapiens, UniProt Q9Y5X9)
T1 sequence (Q9Y5X9 whole entry): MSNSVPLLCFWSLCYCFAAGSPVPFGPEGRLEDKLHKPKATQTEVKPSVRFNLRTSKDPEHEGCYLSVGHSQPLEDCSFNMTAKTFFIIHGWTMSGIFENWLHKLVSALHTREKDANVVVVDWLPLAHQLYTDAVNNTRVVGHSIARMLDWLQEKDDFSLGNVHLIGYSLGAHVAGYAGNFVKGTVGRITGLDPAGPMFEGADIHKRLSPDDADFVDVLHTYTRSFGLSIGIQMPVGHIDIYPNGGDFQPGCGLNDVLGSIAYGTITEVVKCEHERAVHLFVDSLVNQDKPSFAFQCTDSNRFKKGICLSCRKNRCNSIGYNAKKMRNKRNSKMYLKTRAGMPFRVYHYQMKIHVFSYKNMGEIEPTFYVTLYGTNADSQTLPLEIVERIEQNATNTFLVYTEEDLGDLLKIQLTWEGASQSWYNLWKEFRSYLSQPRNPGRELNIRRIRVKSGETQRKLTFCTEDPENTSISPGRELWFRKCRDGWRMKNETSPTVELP
Experiment: Enzymatic Assay: The enzymatic assay was measured using white, opaque 96-well half area plates. Each well contained 60 μL of assay buffer (50 mM HEPES pH 8.0, 50 mM NaCl and 1 mM CaCl2) and 2 ul of a DMSO solution containing compound of interest. Conditioned media obtained from HT-1080 cells, which were transformed by RAGE technology (Athersys) to overexpress endogenous EL, was added and the reaction was allowed to incubate for 20 min at 37° C. with gentle agitation. The reaction was started by the addition of 20 μL of a 1:4 dilution of vesicles. The final total reaction volume was 100 μL. The reaction rates were measured on a Gemini plate reader with an excitation wavelength of 488 nm and an emission of 530 nm. Readings were taken every 20 seconds for 10 min with agitation between each reading.
Assay type: cell-based

Row | SMILES | IC50 [nM]
1 | CC(C)(C)CN1CC(c2nnc(C(=O)c3nc4ccc(-c5ccc(F)cc5)cc4s3)o2)C1 | 4.8
2 | C[C@@H](NC(=O)OC(C)(C)C)c1nnc(C(=O)c2nc3ccc(-c4ccccc4)cc3s2)o1 | < 10
3 | COc1nc(-c2nnc(C(=O)c3nc4ccc(-c5ccccc5)cc4s3)o2)c(OCc2ccccc2)c(=O)[nH]1 | 76
4 | COc1nc(-c2nnc(C(=O)c3nc4ccc(-c5ccc(F)cc5)cc4s3)o2)c(OCc2ccccc2)c(=O)[nH]1 | 122
5 | C[C@H](NC(=O)OC(C)(C)C)c1nnc(C(=O)c2nc3ccc(-c4ccccc4)cc3s2)o1 | 66
6 | CC(C)(C)CN1CC(c2nnc(C(=O)c3nc4c(F)cc(-c5ccccc5)cc4s3)o2)C1 | 18

The remaining lines, values ahead:

Row | IC50 [nM] | SMILES
7 | < 10 | CC1(Cc2nnc(C(=O)c3nc4ccc(-c5ccccc5)cc4s3)o2)NC(=O)N(CC(F)(F)F)C1=O (stereo not given)
8 | < 10 | O=C1NC(=O)C(Cc2nnc(C(=O)c3nc4ccc(-c5ccccc5)cc4s3)o2)S1 (stereo not given)
9 | < 10 | NS(=O)(=O)Cc1nnc(C(=O)c2nc3ccc(-c4ccccc4)cc3s2)o1
10 | < 10 | O=C1NC(=O)C(Cc2nnc(C(=O)c3nc4ccc(-c5ccccc5)cc4s3)o2)N1 (stereo not given)
